Data published in PubChem BioAssay AID1845206 (Molecular Pharmacology Branch, DTP, NCI, 2023).
“And” between values parts separate entries of the source, which are not always exact repeats. Identical values can stand only once. The source made the active and inactive calls. The calls were made as follows: active = viability on the fitted dose curve at most 10% of control; inactive = the rest.

Tested on: NCI-H1618 multicellular tumor spheroid viability
Experiment: Anticancer human tumor NCI-H1618 cell line growth inhibition;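 also: spheroids exposed to agents for 7 days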
Conditions: for viability, T/C: stronger effect = lower value
How it was run: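 Single agents and combinations were tested on spheroids built from tumor cells plus HUVEC and hMSC, at half-log dilutions starting at or near clinical Cmax, else 10 microM; final DMSO 0.25% (v/v).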

[1] = curve of first compound, second compound 1 µM
[2] = curve of first compound, second compound 3.16 µM
[3] = curve of first compound, second compound 10 µM
[4] = curve of first compound, second compound 31.6 µM
[5] = curve of first compound, second compound 100 µM

[2H]c1nc(C)nc([2H])c1-c1cc(NC[C@@H](C)c2cccc3c(C(=O)NC)ccnc23)ncn1 + CC[C@@]1(O)C(=O)OCc2c1cc1n(c2=O)Cc2cc3c(CN(C)C)c(O)ccc3nc2-1
< 31.6 nM: IC50 (curve of first compound, second compound 0.003 µM) | IC50 (curve of first compound, second compound 0.00949 µM) | IC50 (curve of first compound, second compound 0.03 µM) | IC50 (curve of first compound, second compound 0.0949 µM) | IC50 (curve of first compound, second compound 0.3 µM)
active: viability, T/C (second compound 0.3 µM, first compound 0.1 µM) 5.33% | viability, T/C (second compound 0.3 µM, first compound 0.316 µM) 2.69% | viability, T/C (second compound 0.3 µM, first compound 1 µM) 14.1% | viability, T/C (second compound 0.3 µM, first compound 3.16 µM) 16.1% | viability, T/C (second compound 0.3 µM, first compound 10 µM) 4.13%
inactive: viability, T/C (second compound 0.003 µM, first compound 0.0316 µM) 43.8% | viability, T/C (second compound 0.003 µM, first compound 0.1 µM) 7.02% | viability, T/C (second compound 0.003 µM, first compound 0.316 µM) 138% | viability, T/C (second compound 0.003 µM, first compound 1 µM) 158% | viability, T/C (second compound 0.003 µM, first compound 3.16 µM) 108% | viability, T/C (second compound 0.003 µM, first compound 10 µM) 57.3% | viability, T/C (second compound 0.00949 µM, first compound 0.0316 µM) 23% | viability, T/C (second compound 0.00949 µM, first compound 0.1 µM) 4.37% | viability, T/C (second compound 0.00949 µM, first compound 0.316 µM) 42.7% | viability, T/C (second compound 0.00949 µM, first compound 1 µM) 109% | viability, T/C (second compound 0.00949 µM, first compound 3.16 µM) 70.8% | viability, T/C (second compound 0.00949 µM, first compound 10 µM) 29.9% | viability, T/C (second compound 0.03 µM, first compound 0.0316 µM) 12% | viability, T/C (second compound 0.03 µM, first compound 0.1 µM) 7.3% | viability, T/C (second compound 0.03 µM, first compound 0.316 µM) 15.2% | viability, T/C (second compound 0.03 µM, first compound 1 µM) 21.4% | viability, T/C (second compound 0.03 µM, first compound 3.16 µM) 22% | viability, T/C (second compound 0.03 µM, first compound 10 µM) 26.6% | viability, T/C (second compound 0.0949 µM, first compound 0.0316 µM) 11.4% | viability, T/C (second compound 0.0949 µM, first compound 0.1 µM) 10.8% | viability, T/C (second compound 0.0949 µM, first compound 0.316 µM) 3.24% | viability, T/C (second compound 0.0949 µM, first compound 1 µM) 24.5% | viability, T/C (second compound 0.0949 µM, first compound 3.16 µM) 22.6% | viability, T/C (second compound 0.0949 µM, first compound 10 µM) 21.6% | viability, T/C (second compound 0.3 µM, first compound 0.0316 µM) 9.96%

COc1cc2c(cc1O)CCNC21CSC2c3c(OC(C)=O)c(C)c4c(c3C(COC1=O)N1C(O)C3Cc5cc(C)c(OC)c(O)c5C(C21)N3C)OCO4 (stereo not drawn)
0.124 nM [middle of 9 runs]: IC50 (compound alone, run of 12/16/2019)
active: viability, T/C (compound 0.000949 µM) 3.52% [middle of 10 runs] | viability, T/C (compound 0.003 µM) 2.99% [middle of 10 runs]
5.95% [middle of 10 runs]: viability, T/C (compound 0.0003 µM)
inactive: viability, T/C (compound 30 pM) 95.9% [middle of 10 runs]

O=C(c1cc(Cc2n[nH]c(=O)c3ccccc23)ccc1F)N1CCN(C(=O)C2CC2)CC1
1820 nM and 10900 nM and 6890 nM: IC50 (curve of compound)
25% and 3.78% and 9.4%: viability, T/C (compound 30 µM)
inactive: viability, T/C (compound 0.0949 µM) 98.1% and 105% and 94.9% | outcome (compound 0.3 µM) | viability, T/C (compound 0.3 µM) 103% and 90.6% | viability, T/C (compound 0.949 µM) 83.7% and 96.2% and 98.8% | viability, T/C (compound 3 µM) 23.2% and 98.6% and 91% | viability, T/C (compound 9.49 µM) 23.5% and 56.3% and 34.1%

Cc1cc(C)c(CNC(=O)c2cc(-c3ccc(CN4CCOCC4)cc3)cc3c2cnn3C2CCCC2)c(=O)[nH]1 + Cn1nnc2c(C(N)=O)ncn2c1=O
< 31.6 nM: IC50 [2] | IC50 [3] | IC50 [4] | IC50 [5]
inactive: viability, T/C (second compound 1 µM, first compound 0.0316 µM) 88.9% | viability, T/C (second compound 1 µM, first compound 0.1 µM) 82.9% | viability, T/C (second compound 1 µM, first compound 0.316 µM) 89.8% | outcome (second compound 1 µM, first compound 1 µM) | viability, T/C (second compound 1 µM, first compound 3.16 µM) 82.3% | viability, T/C (second compound 1 µM, first compound 10 µM) 78.8% | viability, T/C (second compound 3.16 µM, first compound 0.0316 µM) 24.3% | viability, T/C (second compound 3.16 µM, first compound 0.1 µM) 13.1% | viability, T/C (second compound 3.16 µM, first compound 0.316 µM) 16.6% | viability, T/C (second compound 3.16 µM, first compound 1 µM) 22% | viability, T/C (second compound 3.16 µM, first compound 3.16 µM) 14.7% | viability, T/C (second compound 3.16 µM, first compound 10 µM) 19.3% | viability, T/C (second compound 31.6 µM, first compound 0.0316 µM) 18.2% | viability, T/C (second compound 31.6 µM, first compound 0.1 µM) 20.3% | viability, T/C (second compound 31.6 µM, first compound 0.316 µM) 20.4% | viability, T/C (second compound 31.6 µM, first compound 1 µM) 5.16% | viability, T/C (second compound 31.6 µM, first compound 3.16 µM) 13.7% | viability, T/C (second compound 31.6 µM, first compound 10 µM) 12% | viability, T/C (second compound 100 µM, first compound 0.0316 µM) 34.9% | viability, T/C (second compound 100 µM, first compound 0.1 µM) 63.6% | viability, T/C (second compound 100 µM, first compound 0.316 µM) 52.6% | viability, T/C (second compound 100 µM, first compound 1 µM) 46.8% | viability, T/C (second compound 100 µM, first compound 3.16 µM) 66.2% | viability, T/C (second compound 100 µM, first compound 10 µM) 44.2%
active: viability, T/C (second compound 10 µM, first compound 0.0316 µM) 4.25% | viability, T/C (second compound 10 µM, first compound 0.1 µM) 19.8% | viability, T/C (second compound 10 µM, first compound 0.316 µM) 10.5% | viability, T/C (second compound 10 µM, first compound 1 µM) 3.64% | viability, T/C (second compound 10 µM, first compound 3.16 µM) 5.17% | viability, T/C (second compound 10 µM, first compound 10 µM) 4.06%
> 10000 nM: IC50 [1]

CNCc1ccc(-c2cc(-c3nc(-c4ccc(S(=O)(=O)C(C)C)cc4)cnc3N)on2)cc1 + Cn1nnc2c(C(N)=O)ncn2c1=O
inactive: viability, T/C (second compound 1 µM, first compound 0.00949 µM) 87.1% | viability, T/C (second compound 1 µM, first compound 0.03 µM) 89.3% | viability, T/C (second compound 1 µM, first compound 0.0949 µM) 20% | viability, T/C (second compound 3.16 µM, first compound 0.00949 µM) 11.2% | viability, T/C (second compound 3.16 µM, first compound 0.03 µM) 23.2% | viability, T/C (second compound 3.16 µM, first compound 0.0949 µM) 21.4% | viability, T/C (second compound 31.6 µM, first compound 0.00949 µM) 10.5% | viability, T/C (second compound 31.6 µM, first compound 0.03 µM) 14.6% | viability, T/C (second compound 31.6 µM, first compound 0.0949 µM) 19.2% | viability, T/C (second compound 31.6 µM, first compound 0.3 µM) 1.44% | outcome (second compound 100 µM, first compound 0.00949 µM) | viability, T/C (second compound 100 µM, first compound 0.03 µM) 24.1% | viability, T/C (second compound 100 µM, first compound 0.0949 µM) 13.9% | viability, T/C (second compound 100 µM, first compound 0.3 µM) 1.69%
active: viability, T/C (second compound 1 µM, first compound 0.3 µM) 9.42% | viability, T/C (second compound 1 µM, first compound 0.949 µM) 1.93% | viability, T/C (second compound 1 µM, first compound 3 µM) 0.47% | viability, T/C (second compound 3.16 µM, first compound 0.3 µM) 2.21% | viability, T/C (second compound 3.16 µM, first compound 0.949 µM) 1.04% | viability, T/C (second compound 3.16 µM, first compound 3 µM) 0.58% | viability, T/C (second compound 10 µM, first compound 0.00949 µM) 8.64% | viability, T/C (second compound 10 µM, first compound 0.03 µM) 4.75% | viability, T/C (second compound 10 µM, first compound 0.0949 µM) 3.76% | viability, T/C (second compound 10 µM, first compound 0.3 µM) 1.59% | viability, T/C (second compound 10 µM, first compound 0.949 µM) 0.8% | viability, T/C (second compound 10 µM, first compound 3 µM) 16.5% | viability, T/C (second compound 31.6 µM, first compound 0.949 µM) 1.18% | viability, T/C (second compound 31.6 µM, first compound 3 µM) 18.5% | viability, T/C (second compound 100 µM, first compound 0.949 µM) 19.3% | viability, T/C (second compound 100 µM, first compound 3 µM) 0.46%
< 9.49 nM: IC50 [2] | IC50 [3] | IC50 [4] | IC50 [5]
57.2 nM: IC50 [1]
